Active and inactive are the calls of the source. The rule behind the calls is not given here.
Legend:
[1] = biological target: T1, Mitogen-activated protein kinase kinase kinase kinase 2 (Homo sapiens) (UniProt Q12851); experiment: Inhibition of MAP4K2 (GCK) Lys2 labeling site in human A-375 cells at 0.5 uM by KiNativ Profiling analysis relative to control; assay type: cell-based
T1 sequence (whole entry): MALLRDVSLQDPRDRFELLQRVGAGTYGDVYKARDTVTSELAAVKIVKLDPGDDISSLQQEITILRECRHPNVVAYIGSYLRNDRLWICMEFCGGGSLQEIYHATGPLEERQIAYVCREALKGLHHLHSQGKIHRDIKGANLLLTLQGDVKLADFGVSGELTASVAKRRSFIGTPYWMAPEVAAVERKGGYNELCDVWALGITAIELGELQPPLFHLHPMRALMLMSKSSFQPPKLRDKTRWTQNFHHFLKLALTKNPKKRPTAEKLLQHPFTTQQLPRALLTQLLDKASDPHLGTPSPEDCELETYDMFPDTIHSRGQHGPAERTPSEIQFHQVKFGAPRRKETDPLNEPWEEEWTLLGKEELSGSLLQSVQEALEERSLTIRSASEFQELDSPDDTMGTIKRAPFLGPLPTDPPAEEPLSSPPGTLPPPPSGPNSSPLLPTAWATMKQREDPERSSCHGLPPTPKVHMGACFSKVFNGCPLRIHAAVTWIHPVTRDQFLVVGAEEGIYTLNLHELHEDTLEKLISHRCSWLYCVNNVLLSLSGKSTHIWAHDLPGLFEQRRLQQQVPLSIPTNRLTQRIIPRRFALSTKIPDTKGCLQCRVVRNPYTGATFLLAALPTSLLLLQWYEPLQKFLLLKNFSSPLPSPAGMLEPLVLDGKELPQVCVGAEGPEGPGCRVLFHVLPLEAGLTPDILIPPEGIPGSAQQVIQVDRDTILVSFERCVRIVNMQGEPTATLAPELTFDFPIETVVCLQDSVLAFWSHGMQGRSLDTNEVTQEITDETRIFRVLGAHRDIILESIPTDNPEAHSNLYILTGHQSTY

[2] = biological target: T2, Serine/threonine-protein kinase TBK1 (Homo sapiens) (UniProt Q9UHD2); experiment: Inhibition of TBK1 K2 labeling site in human Huh-7 cells at 1 uM by KiNativ Profiling analysis relative to control; assay type: cell-based
T2 sequence (whole entry): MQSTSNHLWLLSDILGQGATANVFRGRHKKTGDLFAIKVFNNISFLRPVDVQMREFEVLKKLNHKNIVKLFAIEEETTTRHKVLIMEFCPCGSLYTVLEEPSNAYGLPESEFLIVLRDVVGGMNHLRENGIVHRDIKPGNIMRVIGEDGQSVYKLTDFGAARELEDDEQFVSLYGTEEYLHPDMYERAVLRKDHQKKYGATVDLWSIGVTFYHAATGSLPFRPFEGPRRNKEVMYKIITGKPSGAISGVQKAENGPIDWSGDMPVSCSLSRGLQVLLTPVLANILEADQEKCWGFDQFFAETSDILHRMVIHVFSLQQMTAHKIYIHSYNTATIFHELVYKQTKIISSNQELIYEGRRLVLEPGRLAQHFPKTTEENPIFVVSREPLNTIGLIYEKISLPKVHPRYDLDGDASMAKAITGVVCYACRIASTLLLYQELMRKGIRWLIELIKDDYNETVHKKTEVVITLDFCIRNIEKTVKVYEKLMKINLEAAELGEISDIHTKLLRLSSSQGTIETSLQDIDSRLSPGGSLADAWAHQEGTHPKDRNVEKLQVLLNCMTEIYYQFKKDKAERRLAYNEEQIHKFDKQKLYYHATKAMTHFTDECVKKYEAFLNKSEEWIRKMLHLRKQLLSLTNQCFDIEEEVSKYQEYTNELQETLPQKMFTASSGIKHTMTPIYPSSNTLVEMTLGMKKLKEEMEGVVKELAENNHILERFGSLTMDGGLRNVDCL

[3] = biological target: Mitogen-activated protein kinase 3 (Homo sapiens) (UniProt P27361); experiment: Inhibition of ERK1 (unknown origin) at 10 uM by Ambit Kinomescan binding assay
[4] = biological target: T3, Serine/threonine-protein kinase LATS2 (Homo sapiens) (UniProt Q9NRM7); experiment: Inhibition of LATS2 (unknown origin) at 10 uM by Ambit Kinomescan binding assay relative to control
T3 sequence (whole entry): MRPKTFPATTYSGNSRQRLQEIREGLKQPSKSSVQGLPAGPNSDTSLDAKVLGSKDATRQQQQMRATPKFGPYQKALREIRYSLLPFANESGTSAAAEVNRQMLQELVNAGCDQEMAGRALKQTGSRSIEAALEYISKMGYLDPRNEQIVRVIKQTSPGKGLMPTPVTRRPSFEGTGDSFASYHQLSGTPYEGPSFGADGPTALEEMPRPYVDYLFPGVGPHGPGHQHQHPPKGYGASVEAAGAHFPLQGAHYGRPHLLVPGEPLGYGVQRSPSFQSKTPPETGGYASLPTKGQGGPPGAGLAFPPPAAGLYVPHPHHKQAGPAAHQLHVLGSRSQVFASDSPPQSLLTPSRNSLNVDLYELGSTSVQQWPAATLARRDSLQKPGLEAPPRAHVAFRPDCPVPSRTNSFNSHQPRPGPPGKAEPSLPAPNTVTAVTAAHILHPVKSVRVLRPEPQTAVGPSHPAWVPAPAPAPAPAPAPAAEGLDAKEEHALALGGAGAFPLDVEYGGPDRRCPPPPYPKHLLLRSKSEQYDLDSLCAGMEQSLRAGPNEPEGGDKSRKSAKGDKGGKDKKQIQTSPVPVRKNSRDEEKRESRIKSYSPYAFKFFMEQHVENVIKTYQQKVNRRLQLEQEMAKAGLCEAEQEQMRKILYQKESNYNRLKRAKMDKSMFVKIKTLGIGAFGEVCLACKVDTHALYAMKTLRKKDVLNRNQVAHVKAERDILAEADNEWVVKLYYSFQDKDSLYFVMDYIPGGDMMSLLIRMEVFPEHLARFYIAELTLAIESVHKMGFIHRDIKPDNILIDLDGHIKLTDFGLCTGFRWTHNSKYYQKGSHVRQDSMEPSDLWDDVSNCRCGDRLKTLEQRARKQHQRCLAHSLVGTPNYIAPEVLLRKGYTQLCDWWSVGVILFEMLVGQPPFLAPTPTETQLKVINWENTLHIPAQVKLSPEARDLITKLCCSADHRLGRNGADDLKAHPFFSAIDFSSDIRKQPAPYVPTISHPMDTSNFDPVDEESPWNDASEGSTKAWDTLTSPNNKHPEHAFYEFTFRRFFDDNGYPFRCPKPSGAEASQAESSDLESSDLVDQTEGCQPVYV

[5] = biological target: Cyclin-dependent kinase 11B (Homo sapiens) (UniProt P21127); experiment: Inhibition of CDK11 (unknown origin) at 1 uM by Ambit Kinomescan binding assay relative to control
[6] = biological target: Calcium/calmodulin-dependent protein kinase type II subunit gamma (Homo sapiens) (UniProt Q13555); experiment: Inhibition of CaMK2g Lys1 labeling site harbouring TSTQEYAAKIINTK in human Huh-7 cells at 1 uM by KiNativ Profiling analysis relative to control; assay type: cell-based
[7] = Inhibition of KHS1 Lys2 labeling site harbouring DIKGANILLTDHGDVK in human Huh-7 cells at 1 uM by KiNativ Profiling analysis relative to control; details: condition cancer

Sequence of Calcium/calmodulin-dependent protein kinase type II subunit gamma (Homo sapiens) (Q13555 whole entry): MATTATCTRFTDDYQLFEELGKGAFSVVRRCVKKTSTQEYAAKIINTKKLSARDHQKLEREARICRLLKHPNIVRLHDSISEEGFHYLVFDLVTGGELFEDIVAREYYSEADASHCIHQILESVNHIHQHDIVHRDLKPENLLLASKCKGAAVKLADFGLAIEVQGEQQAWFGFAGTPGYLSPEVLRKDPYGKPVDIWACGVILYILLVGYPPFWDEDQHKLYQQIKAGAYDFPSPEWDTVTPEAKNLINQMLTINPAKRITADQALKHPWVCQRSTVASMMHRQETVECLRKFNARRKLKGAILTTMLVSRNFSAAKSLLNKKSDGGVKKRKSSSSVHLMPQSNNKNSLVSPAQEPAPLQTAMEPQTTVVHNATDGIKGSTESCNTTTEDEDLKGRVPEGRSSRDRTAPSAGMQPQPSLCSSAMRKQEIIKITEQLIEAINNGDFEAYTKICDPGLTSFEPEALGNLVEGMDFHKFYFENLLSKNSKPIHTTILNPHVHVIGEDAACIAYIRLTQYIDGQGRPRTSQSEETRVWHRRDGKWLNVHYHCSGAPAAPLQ
Sequence of Cyclin-dependent kinase 11B (Homo sapiens) (P21127 whole entry): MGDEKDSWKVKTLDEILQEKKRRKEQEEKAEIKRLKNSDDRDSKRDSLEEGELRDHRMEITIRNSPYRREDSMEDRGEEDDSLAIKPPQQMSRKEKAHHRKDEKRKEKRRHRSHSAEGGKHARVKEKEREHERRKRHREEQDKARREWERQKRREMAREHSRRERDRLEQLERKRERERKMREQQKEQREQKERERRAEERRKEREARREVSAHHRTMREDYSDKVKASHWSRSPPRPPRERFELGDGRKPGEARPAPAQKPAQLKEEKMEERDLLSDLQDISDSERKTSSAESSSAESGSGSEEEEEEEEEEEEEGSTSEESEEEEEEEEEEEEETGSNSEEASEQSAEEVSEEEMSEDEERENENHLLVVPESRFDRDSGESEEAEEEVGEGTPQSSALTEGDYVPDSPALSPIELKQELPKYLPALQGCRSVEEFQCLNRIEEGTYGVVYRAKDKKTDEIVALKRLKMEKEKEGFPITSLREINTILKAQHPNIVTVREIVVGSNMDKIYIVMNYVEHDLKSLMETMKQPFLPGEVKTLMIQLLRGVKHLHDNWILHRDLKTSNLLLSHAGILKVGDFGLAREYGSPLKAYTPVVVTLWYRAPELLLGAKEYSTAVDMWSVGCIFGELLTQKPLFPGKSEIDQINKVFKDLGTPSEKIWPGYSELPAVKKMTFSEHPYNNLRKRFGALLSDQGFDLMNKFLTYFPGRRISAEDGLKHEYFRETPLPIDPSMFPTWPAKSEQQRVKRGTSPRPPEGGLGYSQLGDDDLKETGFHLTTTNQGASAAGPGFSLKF
Sequence of Mitogen-activated protein kinase 3 (Homo sapiens) (P27361 whole entry): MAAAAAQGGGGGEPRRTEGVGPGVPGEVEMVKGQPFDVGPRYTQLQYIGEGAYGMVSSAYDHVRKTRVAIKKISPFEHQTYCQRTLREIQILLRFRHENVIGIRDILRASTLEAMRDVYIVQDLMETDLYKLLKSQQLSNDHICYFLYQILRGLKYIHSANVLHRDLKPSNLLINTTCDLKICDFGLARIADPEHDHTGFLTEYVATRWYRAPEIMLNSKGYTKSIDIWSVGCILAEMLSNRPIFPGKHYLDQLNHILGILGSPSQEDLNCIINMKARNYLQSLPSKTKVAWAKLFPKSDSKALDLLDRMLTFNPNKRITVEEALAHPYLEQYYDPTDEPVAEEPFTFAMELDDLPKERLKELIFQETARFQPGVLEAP

For `CCN1CCN(Cc2ccc(NC(=O)c3ccc(C)c(Oc4ccnc5[nH]ccc45)c3)cc2C(F)(F)F)CC1`, the inhibition [1] was 98%, the inhibition [2] was 17.7% and the inhibition [3] was “inactive”. For the same compound, the inhibition [4] was 13%.

Work on `CCN1CCN(Cc2ccc(NC(=O)c3ccc(C)c(/C=C/c4cnc5[nH]ccc5c4OC)c3)cc2C(F)(F)F)CC1` yielded an inhibition [5] of 27%.

Work on `CNc1cc(Oc2cc(C(=O)Nc3cc(N4CCN(C)CC4)cc(C(F)(F)F)c3)ccc2C)ncn1` yielded an inhibition [6] of 27.1% and an inhibition at 1 µM [7] of -57.8%.

Reference: ChEMBL document CHEMBL5696442, “Discovery of type II inhibitors of TGFβ-activated kinase 1 (TAK1) and mitogen-activated protein kinase kinase kinase kinase 2 (MAP4K2)” (J Med Chem, 2015)
